The numbers were not newly measured in US9321030B2, “Clay-containing thin films as carriers of absorbed molecules” (priority 2012, dated 2016), which cites them from elsewhere.

Data set [1] has as its system Pseudomonas aeruginosa biofilms.
The subject of data set [2] is Mycobacterium tuberculosis.
In data set [3] the test system is multi-drug resistant strains of gram-positive and gram-negative bacteria. Conditions: clinically relevant multi-drug resistant strains.
The subject of data set [4] is S. aureus ATCC 12600. Conditions: known value.

Consider H—(NLys-Nspe-Nspe)4-NH2 [Peptoid 1], for which the activity against biofilms result in data set [1] is recorded as “active”. The outcome in data set [2] was active. Besides, the “efficacy against planktonic cells” value in data set [3] is “demonstrated efficacy”.

For gentamicin, the minimum inhibitory concentration in data set [4] is 1 µg/mL.
